Molecules are shown by their SMILES.

Series [1] can be described thus: UV-visible absorption spectral test (Shimadzu UV2600 UV-visible spectrometer). Format: physicochemical. The settings on record: different dyes in chloroform solution. An excerpt: (§1) The following data are the spectral test data of compound 3d in different solvents (UV-visible data are taken from Shimadzu UV2600 UV-visible spectrometer and fluorescence data are taken from PTI QM4 fluorescence spectrometer):
(§2) The following data are the spectral test data of different dyes in chloroform solution: […]

A short description of series [2]: Fluorescence spectral test (PTI QM4 fluorescence spectrometer). It counts as physicochemical. The settings on record: different dyes in chloroform solution.
Excerpt: as §1, §2

In series [1], `CCN(CC)c1ccc2cc3c(cc2c1)C1(c2ccccc2Oc2ccccc21)c1cc2c(cc1=C3c1ccccc1C)C=CC(=[N+](CC)CC)C=2` [Compound 1a] had an Extinction coefficient of 217000 cm^−1M^−1 and a Maximum absorption wavelength of 836 nm. This compound yielded a Maximum emission wavelength in series [2] of 864 nm.

In series [1], `Cc1ccccc1C1=c2cc3c(cc2C2(c4ccccc4Oc4ccccc42)c2cc4cc(O)ccc4cc21)=CC(=O)C=C3` [Compound 4b] came in with an Extinction coefficient of 131000 cm^−1M^−1 and a Maximum absorption wavelength of 779 nm. Besides, the Maximum emission wavelength in series [2] was 804 nm.

For the origin of these results see US10351706B2, “Near-infrared fluorescent dyes and uses thereof” (East China University of Science and Technology, priority 2015, dated 2019).
